According to a compilation of properties of binary mixtures (doi:10.1021/acs.jced.1c00111):

Experiment: xn = mol fraction of the nth substance listed
Conditions: 100 kPa

CC[NH+](C)CC.CS(=O)(=O)[O-] + O
viscosity [mPa·s]
Conditions	298.15 K	303.15 K	308.15 K	313.15 K	318.15 K	323.15 K	328.15 K	333.15 K	338.15 K
x1 = 0.0155	1.28	1.15	–	0.957	0.876	0.806	0.751	0.693	0.643
x1 = 0.0356	2.02	1.84	1.64	1.47	1.34	1.22	1.13	1.04	0.953
x1 = 0.0571	2.57	2.27	2	–	1.61	1.45	1.31	1.2	–
x1 = 0.0757	3.43	2.99	2.64	2.34	2.09	1.87	1.68	1.53	1.39
x1 = 0.0967	–	–	3.45	3.05	2.7	2.42	2.17	–	1.79
x1 = 0.1234	5.96	5.09	4.39	3.82	3.35	2.97	2.64	2.36	2.12
x1 = 0.1582	8.21	6.94	5.93	5.13	–	3.92	–	3.08	2.75
x1 = 0.206	11.6	9.76	8.3	7.11	6.12	5.3	–	4.03	3.55
x1 = 0.3246	20	–	13.9	–	10.1	8.94	7.81	–	–
x1 = 0.4263	–	25.9	22	–	15.6	13.2	11.5	9.9	–
x1 = 0.5018	42.1	34	–	22.8	19.4	16.5	–	–	–
x1 = 0.5783	52.8	42.1	–	28.3	23.6	20	17	14.5	–
x1 = 0.6771	–	–	44.2	36	29.8	24.8	21.1	18.1	–
x1 = 0.7782	90.5	70.3	–	44.9	36.5	30	–	22.2	18.7
